Experimental data from paper PMC6911004, “Fragment-based screening identifies molecules targeting the substrate-binding ankyrin repeat domains of tankyrase” (Scientific Reports, 2019).

How the values were obtained:
Assay type in all cases: binding
TNKS2 ARC5 [1] = biological target: T1, TNKS2 ARC5 (Homo sapiens, UniProt Q9H2K2); experiment: T2 relaxation-edited ligand-observed NMR assay; details: DSF hit validation
T1 construct: followed by TNKS2 ARC5 (1 μL, 100 μM stock); His6-GST; made in house; host or cells: E. coli
Text: (§1) 39 hits from the DSF screen were suitable for follow-up by ligand-observed NMR methods. We re-purchased fragments and performed T2 relaxation-edited (CPMG-edited) and waterLOGSY experiments for each fragment with TNKS2 ARC5. We explored saturation transfer difference (STD) NMR, also using TNKS2 ARC5, but the assay was not sensitive enough to produce a reliable binding signal, likely due to the relatively small size of a single ARC protein (data not shown). High ligand concentrations were required to achieve sufficient signal, which in turn could lead to false-positive hits due to non-specific binding.
Using the relaxation-edited assay, we tested each fragment in three independent measurements (Fig. 2C), unless we obtained two negative results (non-binding) in the first two experiments. […] As a negative NOE for the compound-only sample could indicate aggregation, we flagged these compounds as potentially problematic. We identified 14 fragments that bound to TNKS2 ARC5 by both relaxation-edited and waterLOGSY methods (0.78% hit rate). We next tested whether binding of these fragments occurred competitively with the 3BP2 TBM peptide, and also if they bound to TNKS2 ARC4, as competition with peptide binders at various different ARCs will be a prerequisite for an efficient substrate binding antagonist. Three fragments (1, 2, 3) bound to both TNKS2 ARC4 and ARC5 and were competitive with the TBM peptide (0.16% hit rate) (Fig. 2E). Three further fragments also bound to both ARCs, but were not TBM competitive by NMR.
Fragments were dispensed in duplicate into a 384-well plate (250 nL, 100 mM stock in DMSO). Wells were backfilled with DMSO (2.25 μL). Tankyrase ARC protein (47.5 μL in 25 mM HEPES, pH 7.5, 100 mM NaCl, 2 mM TCEP, 10% D2O; 20 μM final protein concentration in the assay) was added to the ‘protein’ samples; buffer only (47.5 μL) was added to the ‘compound-only’ samples. Solutions were transferred to 1.7 mm NMR tubes using a Gilson liquid handling system. ^1H NMR spectra were recorded, with the DMSO and water signals dampened. A relaxation spin filter was applied at 400 ms[65]. Data were processed using Bruker Topspin 3.14. Lines were broadened with LB = 3.0, and the baseline was corrected between 6.0–10.0 ppm. The average integral for all peaks between 6.0–10.0 ppm was calculated, and the difference between compound-only and compound-plus-protein samples was compared. A reduction in signal integrals of ≥15% was classified as a hit. For competitive experiments, 3BP2 16-mer peptide (100 μM) was added, and the spectra were recorded and processed as above. The variability in signal reduction in the relaxation-edited experiment was previously determined as approximately ± 10% (Liu et al., unpublished observations).

[2] = biological target: T2, TNKS2 ARC4 aromatic glycine sandwich (YY536/569AA) (Homo sapiens, UniProt Q9H2K2, Y536A/Y569A); experiment: T2 relaxation-edited NMR with mutant ARC
T2 construct: TNKS2 ARC4 (488–649); His6-GST; made in house; host or cells: E. coli BL21-CodonPlus (DE3)-RIL
Text: We used three previously designed TNKS2 ARC4 mutant variants[4] to explore potential binding determinants for fragment 9. A WFE591/593/598AAA triple-mutation abrogates three key residues in the “arginine cradle”; YY536/569AA truncates two tyrosine residues that form the “glycine sandwich”, and L560W introduces a bulky residue into the “central patch” that sterically clashes with the TBM peptide (see Fig. 5A,B for locations of the mutated residues). We tested binding of compound 9 to the wild-type and mutant ARCs by ligand-observed NMR, using the relaxation-edited assay (Fig. 5C, Table 4). […] Binding was impaired but not abolished for the “central patch” mutant variant (L560W).
Fragments were dispensed in duplicate into a 384-well plate (250 nL, 100 mM stock in DMSO). […] Solutions were transferred to 1.7 mm NMR tubes using a Gilson liquid handling system. ^1H NMR spectra were recorded, with the DMSO and water signals dampened. […] The average integral for all peaks between 6.0–10.0 ppm was calculated, and the difference between compound-only and compound-plus-protein samples was compared. […] For competitive experiments, 3BP2 16-mer peptide (100 μM) was added, and the spectra were recorded and processed as above. The variability in signal reduction in the relaxation-edited experiment was previously determined as approximately ± 10% (Liu et al., unpublished observations).

TNKS2 ARC5 [3] = biological target: T1, TNKS2 ARC5; experiment: WaterLOGSY NMR assay
Text: as §1
Using the relaxation-edited assay, we tested each fragment in three independent measurements (Fig. 2C), unless we obtained two negative results (non-binding) in the first two experiments. […] As a negative NOE for the compound-only sample could indicate aggregation, we flagged these compounds as potentially problematic. We identified 14 fragments that bound to TNKS2 ARC5 by both relaxation-edited and waterLOGSY methods (0.78% hit rate). […]
Fragments were dispensed in duplicate into a 384-well plate (250 nL, 100 mM stock in DMSO). […] Solutions were transferred to 1.7 mm NMR tubes using a Gilson liquid handling system. ^1H NMR spectra were recorded, with the DMSO signal dampened. […]

TNKS2 ARC4 (488–649) = biological target: T3, TNKS2 ARC4 (488–649) (Homo sapiens, UniProt Q9H2K2); experiment: Isothermal titration calorimetry (ITC); details: global analysis n = 5
T3 construct: The cell was filled with TNKS2 ARC4 (488–649); His6-GST (cleaved yes); made in house; host or cells: E. coli BL21-CodonPlus (DE3)-RIL
T3 sequence (Q9H2K2 488-649): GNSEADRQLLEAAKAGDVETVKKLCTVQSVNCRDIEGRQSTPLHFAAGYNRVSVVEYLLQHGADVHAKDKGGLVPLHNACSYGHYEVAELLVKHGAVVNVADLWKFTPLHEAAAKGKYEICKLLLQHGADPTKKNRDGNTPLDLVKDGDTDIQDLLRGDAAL
Protocol: We next used isothermal titration calorimetry (ITC) to confirm the compound 9:TNKS2 ARC4 binding affinity, titrating the fragment (5 mM, 1% DMSO) into TNKS2 ARC4 (200 μM, 1% DMSO).
An ITC200 instrument (MicroCal) was used, fitted with a twisted syringe needle, stirring at 750 rpm. All solutions were degassed using a ThermoVac before use. The reference cell was filled with buffer (200 μL, 25 mM HEPES-NaOH pH 7.5, 100 mM NaCl, 1 mM TCEP, 1% v/v DMSO). The cell was filled with TNKS2 ARC4 (488–649) (200 μL, 200 μM in identical buffer as above). 20 injections (1 × 0.5 μL, then 19 × 2 μL) of compound 9 (5 mM, 1% v/v DMSO in buffer) were performed, with 180 s between injections. Blank correction was performed by titrating compound into buffer alone (25 mM HEPES-NaOH pH 7.5, 100 mM NaCl, 1 mM TCEP, 1% v/v DMSO) using the same injection protocol as above. The first injections from each run were discarded from data analysis. Data were analysed using Origin software with a one-site binding model. Titrations were repeated n = 5. Global analysis was performed using SEDPHAT software.

Row | binding to TNKS2 ARC5 by ligand-observed NMR, in words (TNKS2 ARC5 [1]; relaxation-edited and waterLOGSY) | competition with the 3BP2 TBM peptide by relaxation-edited NMR (TNKS2 ARC5 [1]; ARC used for competition not given) | T2 relaxation-edited: reduction of signal integrals [2] [%] | Kd (TNKS2 ARC4 (488–649); compound 5 mM into ARC4 200 μM, 1% DMSO) [µM] | ITC stoichiometry (N) compound:TNKS2 ARC4 (TNKS2 ARC4 (488–649)) | SMILES | waterLOGSY (TNKS2 ARC5 [3])
1 | bound | competitive |  |  |  | O=C(NCc1ccco1)c1ccc(F)cc1 [compound 3] | 
2 |  |  | 0 | 1200 | 1.1 | O=C(NCc1ccco1)c1ccc2nccnc2c1 [compound 9] | negative NOE signal
